# Assay results: patent EP0355612B1, “Furylthiazole derivatives, processes for the preparation thereof and pharmaceutical composition comprising the same” (FUJISAWA PHARMACEUTICAL CO., LTD., priority 1988, dated 1990)
# How the values were obtained:
# [1] = biological target: T1, H₂-receptor (Cavia porcellus, UniProt P47747); assay: Test B: H₂-receptor antagonism in isolated guinea-pig atrium; assay type: cell-based; conditions: test compound 1 x 10⁻⁶ g/ml; histamine (1 x 10⁻⁶ g/ml)-induced increase in beating rate, before and 30 minutes after dosing
# T1 construct: from tissue; host or cells: isolated guinea-pig atrial strip
# T1 sequence (P47747 whole entry): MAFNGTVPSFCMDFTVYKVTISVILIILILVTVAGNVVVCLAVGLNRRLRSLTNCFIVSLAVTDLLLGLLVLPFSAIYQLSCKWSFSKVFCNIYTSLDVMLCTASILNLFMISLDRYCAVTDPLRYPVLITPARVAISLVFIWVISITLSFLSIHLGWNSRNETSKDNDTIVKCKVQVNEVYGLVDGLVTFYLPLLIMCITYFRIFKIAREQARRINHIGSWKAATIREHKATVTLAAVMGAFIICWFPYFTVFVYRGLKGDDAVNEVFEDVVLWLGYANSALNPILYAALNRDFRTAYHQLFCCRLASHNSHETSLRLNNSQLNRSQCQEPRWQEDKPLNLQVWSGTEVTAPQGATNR
# Method: Test B (H₂-receptor antagonism in isolated guinea-pig atrium):
# The atrial strip isolated from guinea-pig was suspended under an initial tension 0.3 to 0.6 g in an organ bath containing Tyrode solution at 30°C, aerated 95%O₂-5%CO₂ gas. The beating rate and amplitude of contraction of the atrium were recorded by means of a transducer and a polygraph. Histamine (1 x 10⁻⁶ g/ml) was added to the bathing fluid and the increase in beating rate after dosing was measured. Addition of test compounds (1 x 10⁻⁶ g/ml) was made 30 minutes after washing out histamine. Inhibitory effect of test compound was calculated by comparing histamine-induced increases in beating rate before and 30 minutes after dosing with the test compounds.
# [2] = system: lumen perfused stomach in anesthetized rats; assay: Test D: Gastric secretion from lumen perfused stomach in anesthetized rats (histamine-stimulated); assay type: in vivo, Sprague-Dawley rats; conditions: maximal inhibition of acid output; histamine 3 mg/kg/hr intravenous infusion; test compound 1 mg/kg intravenously
# Method: Test D (Gastric secretion from lumen perfused stomach in anesthetized rats):
# Male Sprague-Dawley rats weighing about 250 g were used. Rats were deprived of food but allowed free access to water for 24 hours. The animals were anesthetized with 1.25 g/kg urethane intraperitoneally. The abdomen was opened and the gastric lumen was perfused with saline throughout the experiment. The perfusate was titrated by an autotitrator with 25 mM sodium hydroxide as a titrant. Gastric secretion was stimulated by intravenous infusion with histamine (3 mg/kg/hr). After reaching plateau, test compound (1 mg/kg) was given intravenously. Drug effect was expressed as maximal inhibition by acid output.
# [3] = system: male Sprague-Dawley rats; assay: Test C: Inhibition of stress ulcer (restraint and water immersion); assay type: in vivo; conditions: mean area of ulcers vs control animals; test compound 32 mg/kg orally; seven hours immobilized in water bath at 22°C
# Method: Test C (Inhibition of stress ulcer):
# Five male Sprague-Dawley rats, aged 7 weeks and weighing about 200 g were used per group for the study on stress ulcer after the fast for 24 hours. Each animal was immobilized in a restrain cage and immersed to a level of the xiphoid in a water bath kept 22°C. Each of the test compounds (32 mg/kg) suspended in 0.1% methylcellulose solution was administered orally just before the immobilization. Seven hours later, the animals were sacrificed and their stomachs were removed. The stomach was then fixed with 2% formalin. The area of ulcers was measured for each animal, and percentage of inhibition was calculated by comparing the mean area of ulcers (mm²) in the test animals with that in the control animals.
Compound,H₂ Antagonism (%) [1] [%],Inhibition (%) [2] [%],Inhibition (%) [3] [%]
"CNC(=NC#N)NCc1ccc(-c2csc(N=C(N)N)n2)o1 [Test Compound (b), 4-[5-(2-Cyano-3-methylguanidino)methylfuran-2-yl]-2-(diaminomethyleneamino)thiazole]",90.7,,
CNC(=O)NCc1ccc(-c2csc(N=C(N)N)n2)o1 [Test Compound (c)],89.1,,
"NC(N)=Nc1nc(-c2ccc(CC(N)=NS(N)(=O)=O)o2)cs1 [Test Compound (d), 4-[5-(2-Amino-2-aminosulfonyliminoethyl)furan-2-yl]-2-(diaminomethyleneamino)thiazole]",,99,86.6
